Where “and” joins values, the source holds several entries; their conditions need not be identical. Equal entries are not always repeated. Toxic doses and inconclusive results are not listed. The calls were made as follows: active = survival T/C of 150% or more; inactive = T/C below 125% in these data.
Test system: P388 leukemia ip, CD2F1 mice, survival T/C
Assay: NCI In Vivo Anticancer Drug Screen. Data for tumor model P388 Leukemia (intraperitoneal) in CD2F1 (CDF1) mice
Settings: endpoint: median survival time, higher = longer survival
Method in brief: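 Mice carrying the transplanted tumor received test compound or vehicle. Survival was recorded in each group, and the value is the treated-group measurement divided by that of the vehicle-treated control group.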

[1] = dose: 60.0 mg/kg/injection, schedule: Q01DX005 (ip), vehicle: saline with Tween-80
[2] = dose: 120.0 mg/kg/injection, schedule: Q01DX005 (ip), vehicle: saline with Tween-80
[3] = dose: 25.0 mg/kg/injection, schedule: Q01DX009 (ip), vehicle: saline with Tween-80
[4] = dose: 50.0 mg/kg/injection, schedule: Q01DX009 (ip), vehicle: saline with Tween-80
[5] = dose: 100.0 mg/kg/injection, schedule: Q01DX009 (ip), vehicle: saline with Tween-80
[6] = dose: 50.0 mg/kg/injection, schedule: Q01DX009 (ip), vehicle: Klucel (hydroxypropylcellulose) (HPC)
[7] = dose: 100.0 mg/kg/injection, schedule: Q01DX009 (ip), vehicle: Klucel (hydroxypropylcellulose) (HPC)
[8] = dose: 50.0 mg/kg/injection, schedule: Q01DX005 (ip), vehicle: saline with Tween-80
[9] = dose: 100.0 mg/kg/injection, schedule: Q01DX005 (ip), vehicle: saline with Tween-80
[10] = dose: 200.0 mg/kg/injection, schedule: Q01DX005 (ip), vehicle: saline with Tween-80

Measured: T/C

CCc1cccc(C)c1NC(=O)CCC(=O)OC
inactive: [1] 102 % of control | [2] 97 % of control | dose: 240.0 mg/kg/injection, schedule: Q01DX005 (ip), vehicle: saline with Tween-80 96 % of control

O=C(O)c1ccccc1C(c1ccccc1)c1ccccc1
inactive: [3] 100 % of control | [4] 100 % of control | [5] 100 % of control

Cc1ccccc1N1C(=O)CSC1=S
inactive: dose: 12.5 mg/kg/injection, schedule: Q01DX009 (ip), vehicle: saline with Tween-80 105 % of control | [3] 95 % of control | [4] 105 % of control

CC(=O)C1CC(=O)c2c(O)ccc(O)c2C1 (stereo not drawn)
inactive: dose: 25.0 mg/kg/injection, schedule: Q01DX009 (ip), vehicle: water 94 % of control | dose: 50.0 mg/kg/injection, schedule: Q01DX009 (ip), vehicle: water 96 % of control | dose: 100.0 mg/kg/injection, schedule: Q01DX009 (ip), vehicle: water 89 % of control | dose: 200.0 mg/kg/injection, schedule: Q01DX009 (ip), vehicle: water 111 % of control | dose: 400.0 mg/kg/injection, schedule: Q01DX009 (ip), vehicle: water 109 % of control

NNC(=O)CNc1ccc(F)c(Cl)c1
inactive: dose: 15.0 mg/kg/injection, schedule: Q01DX005 (ip), vehicle: saline with Tween-80 99 % of control | dose: 30.0 mg/kg/injection, schedule: Q01DX005 (ip), vehicle: saline with Tween-80 96 % of control | [1] 94 % of control and 97 % of control | [2] 104 % of control

C/C=C/C=C/C(=O)c1ccc(OC)cc1O
inactive: [4] 103 % of control and 105 % of control | [5] 101 % of control and 103 % of control | dose: 200.0 mg/kg/injection, schedule: Q01DX009 (ip), vehicle: saline with Tween-80 101 % of control and 106 % of control | dose: 400.0 mg/kg/injection, schedule: Q01DX009 (ip), vehicle: saline with Tween-80 106 % of control and 108 % of control

COC(=O)/C1=C/N(C=O)CCCC2OC12C(=O)OC (stereo not drawn)
inactive: dose: 100.0 mg/kg/injection, schedule: Q01DX001 (ip), vehicle: Klucel (hydroxypropylcellulose) (HPC) 100 % of control | dose: 200.0 mg/kg/injection, schedule: Q01DX001 (ip), vehicle: Klucel (hydroxypropylcellulose) (HPC) 100 % of control

Cc1c2oc3c(C)ccc(C(=O)NCCN4CCCCC4)c3nc-2c(C(=O)NCCN2CCCCC2)c(N)c1=O
inactive: dose: 12.5 mg/kg/injection, schedule: Q01DX009 (ip), vehicle: Klucel (hydroxypropylcellulose) (HPC) 98 % of control | dose: 25.0 mg/kg/injection, schedule: Q01DX009 (ip), vehicle: Klucel (hydroxypropylcellulose) (HPC) 117 % of control | [6] 115 % of control | [7] 110 % of control

C=C1C[C@]23C[C@@]1(O)CC[C@H]2[C@@]12C=C[C@@H](O1)C(C(=O)OCC)=C2[C@@H]3O
inactive: dose: 3.75 mg/kg/injection, schedule: Q01DX005 (ip), vehicle: saline 109 % of control | dose: 7.5 mg/kg/injection, schedule: Q01DX005 (ip), vehicle: saline 100 % of control | dose: 15.0 mg/kg/injection, schedule: Q01DX005 (ip), vehicle: Klucel (hydroxypropylcellulose) (HPC) 97 % of control | dose: 15.0 mg/kg/injection, schedule: Q01DX005 (ip), vehicle: saline 107 % of control | dose: 60.0 mg/kg/injection, schedule: Q01DX005 (ip), vehicle: Klucel (hydroxypropylcellulose) (HPC) 117 % of control

COc1cc2c(c(OC)c1OC)C(=O)CCC2
inactive: dose: 25.0 mg/kg/injection, schedule: Q04DX003 (ip), vehicle: Klucel (hydroxypropylcellulose) (HPC) 100 % of control | dose: 50.0 mg/kg/injection, schedule: Q04DX003 (ip), vehicle: Klucel (hydroxypropylcellulose) (HPC) 104 % of control | dose: 100.0 mg/kg/injection, schedule: Q04DX003 (ip), vehicle: Klucel (hydroxypropylcellulose) (HPC) 92 % of control and 93 % of control | dose: 400.0 mg/kg/injection, schedule: Q04DX003 (ip), vehicle: Klucel (hydroxypropylcellulose) (HPC) 90 % of control

O=C1OC(CCc2ccccc2O)c2ccccc21 (stereo not drawn)
inactive: [8] 89 % of control | [9] 99 % of control | [10] 93 % of control

COc1cc(CC2NCCc3cc(O)ccc32)cc(OC)c1OC (stereo not drawn)
inactive: [6] 103 % of control | [7] 99 % of control | dose: 200.0 mg/kg/injection, schedule: Q01DX009 (ip), vehicle: Klucel (hydroxypropylcellulose) (HPC) 102 % of control

OC(c1cc(C(F)(F)F)nc2c(Cl)cc(Cl)cc12)C1CCCCN1 (stereo not drawn)
inactive: [4] 105 % of control | [5] 106 % of control

CC(=O)C(=C/C=C/c1ccccc1)C(C)=O
inactive: [8] 90 % of control | [9] 98 % of control | [10] 100 % of control

From PubChem BioAssay AID330 (DTP/NCI, 2004)
